Where a SMILES comes first, the peptide text is derived from it. Bridges are numbered along the chain shown (N, C = ends).

The first assay deals with human α7-containing nAChRs (Homo sapiens, UniProt P36544). In words: cell-based.
human α7-containing nAChRs, sequence (P36544 23-502 limits assumed): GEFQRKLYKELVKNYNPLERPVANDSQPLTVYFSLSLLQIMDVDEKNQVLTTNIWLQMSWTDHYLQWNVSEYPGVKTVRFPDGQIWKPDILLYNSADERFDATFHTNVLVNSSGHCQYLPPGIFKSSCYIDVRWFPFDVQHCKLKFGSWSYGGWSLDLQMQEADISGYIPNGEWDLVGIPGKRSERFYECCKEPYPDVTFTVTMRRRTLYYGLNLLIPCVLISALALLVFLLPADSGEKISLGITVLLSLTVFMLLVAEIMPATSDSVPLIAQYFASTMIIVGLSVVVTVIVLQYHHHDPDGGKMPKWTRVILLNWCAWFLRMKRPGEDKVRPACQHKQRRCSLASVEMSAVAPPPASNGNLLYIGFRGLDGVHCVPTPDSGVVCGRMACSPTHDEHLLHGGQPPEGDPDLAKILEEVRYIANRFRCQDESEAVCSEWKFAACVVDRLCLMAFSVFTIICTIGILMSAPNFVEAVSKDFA
Conditions: not given
In kind it is cell-based.
As to `CC(C)[C@H](NC(=O)[C@@H]1CSSC[C@H](NC(=O)[C@@H](N)CO)C(=O)N[C@H]2CSSC[C@H](NC(=O)[C@H](C)NC(=O)[C@H](C)NC(=O)[C@H](CC(N)=O)NC(=O)[C@H](CCCNC(=N)N)NC(=O)[C@H](C)NC2=O)C(=O)N[C@@H](CCCNC(=N)N)C(=O)N[C@@H](Cc2c[nH]cn2)C(=O)N[C@@H](CC(N)=O)C(=O)N[C@@H](Cc2c[nH]cn2)C(=O)N2CCC[C@H]2C(=O)N1)C(N)=O` [rAusIA [P7A]] (H-SCCARNAACRHNHPCV-NH2; disulfide 2-15, 3-9), the 50% inhibitory concentration (IC50) was above 100 µM.

As to `CC(C)[C@H](NC(=O)[C@@H]1CSSC[C@H](NC(=O)[C@@H](N)CO)C(=O)N[C@H]2CSSC[C@H](NC(=O)[C@H](C)NC(=O)[C@@H]3CCCN3C(=O)[C@H](CC(N)=O)NC(=O)[C@H](C)NC(=O)[C@H](C)NC2=O)C(=O)N[C@@H](CCCNC(=N)N)C(=O)N[C@@H](Cc2c[nH]cn2)C(=O)N[C@@H](CC(N)=O)C(=O)N[C@@H](Cc2c[nH]cn2)C(=O)N2CCC[C@H]2C(=O)N1)C(N)=O` [rAusIA [R5A]] (H-SCCAANPACRHNHPCV-NH2; disulfide 2-15, 3-9), the half-maximal inhibitory concentration (IC50) is above 100 µM.

`CC(C)[C@H](NC(=O)[C@@H]1CSSC[C@H](NC(=O)[C@@H](N)CO)C(=O)N[C@H]2CSSC[C@H](NC(=O)[C@H](C)NC(=O)[C@@H]3CCCN3C(=O)[C@H](CC(N)=O)NC(=O)[C@H](CCCNC(=N)N)NC(=O)[C@H](C)NC2=O)C(=O)N[C@@H](C)C(=O)N[C@@H](Cc2c[nH]cn2)C(=O)N[C@@H](CC(N)=O)C(=O)N[C@@H](Cc2c[nH]cn2)C(=O)N2CCC[C@H]2C(=O)N1)C(N)=O` [rAusIA [R10A]] (H-SCCARNPACAHNHPCV-NH2; disulfide 2-15, 3-9) came in with an IC50 above 100 µM.

In the case of `CC(C)[C@H](NC(=O)[C@@H]1CSSC[C@H](NC(=O)CN)C(=O)N[C@H]2CSSC[C@H](NC(=O)[C@H](C)NC(=O)[C@@H]3CCCN3C(=O)[C@H](CC(N)=O)NC(=O)[C@H](CCCNC(=N)N)NC(=O)[C@H](C)NC2=O)C(=O)N[C@@H](CCCNC(=N)N)C(=O)N[C@@H](Cc2c[nH]cn2)C(=O)N[C@@H](CC(N)=O)C(=O)N[C@@H](Cc2c[nH]cn2)C(=O)N2CCC[C@H]2C(=O)N1)C(N)=O` [rAusIA [S1G]] (H-GCCARNPACRHNHPCV-NH2; disulfide 2-15, 3-9), the “Ratio (IC50 ratio between gAusIA/rAusIA and its corresponding analogues)” value was determined as 2.00; the “fold decrease (loss) in potency relative to wildtype of same isomer” value is recorded as “two”.

Still in this assay, the particulars now being: SEM.
`CC(C)[C@H](NC(=O)[C@@H]1CSSC[C@H](NC(=O)[C@@H](N)CO)C(=O)N[C@H]2CSSC[C@H](NC(=O)[C@H](C)NC(=O)[C@@H]3CCCN3C(=O)[C@H](CC(N)=O)NC(=O)[C@H](CO)NC(=O)[C@H](C)NC2=O)C(=O)N[C@@H](CCCNC(=N)N)C(=O)N[C@@H](Cc2c[nH]cn2)C(=O)N[C@@H](CC(N)=O)C(=O)N[C@@H](Cc2c[nH]cn2)C(=O)N2CCC[C@H]2C(=O)N1)C(N)=O` [rAusIA [R5S]] (H-SCCASNPACRHNHPCV-NH2; disulfide 2-15, 3-9) gave an IC50 of 70 ± 10 µM.

For `CC(C)[C@H](NC(=O)[C@@H]1CSSC[C@H](NC(=O)[C@@H](N)CO)C(=O)N[C@H]2CSSC[C@H](NC(=O)[C@H](C)NC(=O)[C@@H]3CCCN3C(=O)[C@H](CC(N)=O)NC(=O)[C@H](CCCNC(=N)N)NC2=O)C(=O)N[C@@H](CCCNC(=N)N)C(=O)N[C@@H](Cc2c[nH]cn2)C(=O)N[C@@H](CC(N)=O)C(=O)N[C@@H](Cc2c[nH]cn2)C(=O)N2CCC[C@H]2C(=O)N1)C(N)=O` [rAusIA [∆4]] (H-SCCRNPACRHNHPCV-NH2; disulfide 2-14, 3-8), the half-inhibitory concentration (IC50) was 11 ± 0.24 µM.

The compound `C[C@@H]1NC(=O)[C@@H]2CSSC[C@H](NC(=O)[C@H](C)NC(=O)[C@@H]3CCCN3C(=O)[C@H](CC(N)=O)NC1=O)C(=O)N[C@@H](CCCNC(=N)N)C(=O)N[C@@H](Cc1c[nH]cn1)C(=O)N[C@@H](CC(N)=O)C(=O)N[C@@H](Cc1c[nH]cn1)C(=O)N1CCC[C@H]1C(=O)N[C@H](C(N)=O)CSSC[C@H](NC(=O)[C@@H](N)CO)C(=O)N2` [rAusIA [∆5 ∆16]] (H-SCCANPACRHNHPC-NH2; disulfide 2-14, 3-8) registered an IC50 of 27 ± 5.3 µM.

Compound `CC(C)[C@H](NC(=O)[C@@H]1CSSC[C@H](NC(=O)[C@@H](N)CO)C(=O)N[C@H]2CSSC[C@H](NC(=O)[C@H](C)NC(=O)[C@@H]3CCCN3C(=O)[C@H](CC(N)=O)NC(=O)[C@H](C)NC2=O)C(=O)N[C@@H](CCCNC(=N)N)C(=O)N[C@@H](Cc2c[nH]cn2)C(=O)N[C@@H](CC(N)=O)C(=O)N[C@@H](Cc2c[nH]cn2)C(=O)N2CCC[C@H]2C(=O)N1)C(N)=O` [rAusIA [∆5]] (H-SCCANPACRHNHPCV-NH2; disulfide 2-14, 3-8) returned a half-inhibitory concentration (IC50) of 51 ± 11.6 µM.

In the case of `C[C@@H]1NC(=O)[C@@H]2CSSC[C@H](NC(=O)[C@H](C)NC(=O)[C@@H]3CCCN3C(=O)[C@H](CC(N)=O)NC(=O)[C@H](CCCNC(=N)N)NC1=O)C(=O)N[C@@H](CCCNC(=N)N)C(=O)N[C@@H](Cc1c[nH]cn1)C(=O)N[C@@H](CC(N)=O)C(=O)N[C@@H](Cc1c[nH]cn1)C(=O)N1CCC[C@H]1C(=O)N[C@H](C(N)=O)CSSC[C@H](NC(=O)[C@@H](N)CO)C(=O)N2` [rAusIA [∆16]] (H-SCCARNPACRHNHPC-NH2; disulfide 2-15, 3-9), inhibition was half-maximal at 60 ± 9.9 µM (IC50).

`CC[C@H](C)[C@@H]1NC(=O)[C@H](CC(N)=O)NC(=O)[C@@H]2CCCN2C(=O)[C@H](CC(N)=O)NC(=O)[C@H](CC(N)=O)NC(=O)[C@H](C(C)C)NC(=O)[C@H](CCCNC(=N)N)NC(=O)[C@@H]2CSSC[C@H](NC(=O)[C@@H](NC(=O)CNC(=O)[C@@H](N)CO)CSSC[C@@H](C(N)=O)NC1=O)C(=O)N[C@@H](CCCNC(=N)N)C(=O)N[C@@H](CC(N)=O)C(=O)N1CCC[C@H]1C(=O)N[C@@H](C)C(=O)N2` [rLsIA [S5R]] (H-SGCCRNPACRVNNPNIC-NH2; disulfide 3-17, 4-9) yielded an IC50 of 27 ± 5.3 µM.

`CC[C@H](C)[C@@H]1NC(=O)[C@H](CC(N)=O)NC(=O)[C@@H]2CCCN2C(=O)[C@H](CC(N)=O)NC(=O)[C@H](CC(N)=O)NC(=O)[C@H](C(C)C)NC(=O)[C@H](CCCNC(=N)N)NC(=O)[C@@H]2CSSC[C@H](NC(=O)[C@@H](NC(=O)CNC(=O)[C@@H](N)CO)CSSC[C@@H](C(N)=O)NC1=O)C(=O)N[C@@H](C)C(=O)N[C@@H](CO)C(=O)N[C@@H](CC(N)=O)C(=O)N1CCC[C@H]1C(=O)N[C@@H](C)C(=O)N2` [rLsIA [∇A5]] (H-SGCCASNPACRVNNPNIC-NH2; disulfide 3-18, 4-10) displayed an IC50 of 57 ± 14.7 µM.

Take `CC[C@H](C)[C@@H]1NC(=O)[C@H](CC(N)=O)NC(=O)[C@@H]2CCCN2C(=O)[C@H](CC(N)=O)NC(=O)[C@H](CC(N)=O)NC(=O)[C@H](C(C)C)NC(=O)[C@H](CCCNC(=N)N)NC(=O)[C@@H]2CSSC[C@H](NC(=O)[C@@H](NC(=O)CNC(=O)[C@@H](N)CO)CSSC[C@@H](C(N)=O)NC1=O)C(=O)N[C@@H](CO)C(=O)N[C@@H](CCCNC(=N)N)C(=O)N[C@@H](CC(N)=O)C(=O)N1CCC[C@H]1C(=O)N[C@@H](C)C(=O)N2` [rLsIA [∇R6]] (H-SGCCSRNPACRVNNPNIC-NH2; disulfide 3-18, 4-10): half-maximal inhibition (IC50) was put at 66 ± 4.1 µM.

One may read the IC50 as the concentration at which inhibition is half-maximal. Low readings indicate higher potency, high ones lower potency.

These data come from publication PMC8578332 (Scientific Reports, 2021).
